Key:
[1] = tested on: Tyrosine-protein kinase ABL1 (Homo sapiens), P00519 [H396P]; conditions: Compound concentration 1000.0 nM
[2] = tested on: Tyrosine-protein kinase ABL1 (Homo sapiens), P00519 [M351T]; conditions: Compound concentration 1000.0 nM
[3] = tested on: Tyrosine-protein kinase ABL1 (Homo sapiens), P00519 [T315I]; conditions: Compound concentration 1000.0 nM
[4] = target: Tyrosine-protein kinase ABL2 (Homo sapiens) (UniProt P42684); conditions: Compound concentration 1000.0 nM
[5] = target: Calcium/calmodulin-dependent protein kinase type II subunit alpha (Homo sapiens) (UniProt Q9UQM7); conditions: Compound concentration 1000.0 nM
[6] = target: Calcium/calmodulin-dependent protein kinase type II subunit gamma (Homo sapiens) (UniProt Q13555); conditions: Compound concentration 1000.0 nM
[7] = target: Cyclin-dependent kinase 11B (Homo sapiens) (UniProt P21127); conditions: Compound concentration 1000.0 nM
[8] = target: Cyclin-dependent kinase 4 (Homo sapiens) (UniProt P11802); conditions: Compound concentration 1000.0 nM
Cyclin-dependent kinase 4 (Homo sapiens), sequence (P11802 whole entry): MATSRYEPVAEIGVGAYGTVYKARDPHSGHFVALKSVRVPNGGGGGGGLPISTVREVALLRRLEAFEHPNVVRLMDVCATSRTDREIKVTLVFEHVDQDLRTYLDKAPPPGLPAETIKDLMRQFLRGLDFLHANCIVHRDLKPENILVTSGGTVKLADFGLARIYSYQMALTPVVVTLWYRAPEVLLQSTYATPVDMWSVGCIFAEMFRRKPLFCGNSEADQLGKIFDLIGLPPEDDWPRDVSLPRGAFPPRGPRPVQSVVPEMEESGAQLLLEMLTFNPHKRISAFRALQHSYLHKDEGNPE

[9] = target: Cyclin-dependent kinase 4 (Homo sapiens) (UniProt P11802); conditions: Compound concentration 1000.0 nM; remark: listed apart in the source
[10] = target: Cyclin-dependent kinase-like 2 (Homo sapiens) (UniProt Q92772); conditions: Compound concentration 1000.0 nM
[11] = target: Dual specificity protein kinase CLK1 (Homo sapiens) (UniProt P49759); conditions: Compound concentration 1000.0 nM
[12] = target: Dual specificity protein kinase CLK3 (Homo sapiens) (UniProt P49761); conditions: Compound concentration 1000.0 nM
Dual specificity protein kinase CLK3 (Homo sapiens), sequence (P49761 whole entry, looked up): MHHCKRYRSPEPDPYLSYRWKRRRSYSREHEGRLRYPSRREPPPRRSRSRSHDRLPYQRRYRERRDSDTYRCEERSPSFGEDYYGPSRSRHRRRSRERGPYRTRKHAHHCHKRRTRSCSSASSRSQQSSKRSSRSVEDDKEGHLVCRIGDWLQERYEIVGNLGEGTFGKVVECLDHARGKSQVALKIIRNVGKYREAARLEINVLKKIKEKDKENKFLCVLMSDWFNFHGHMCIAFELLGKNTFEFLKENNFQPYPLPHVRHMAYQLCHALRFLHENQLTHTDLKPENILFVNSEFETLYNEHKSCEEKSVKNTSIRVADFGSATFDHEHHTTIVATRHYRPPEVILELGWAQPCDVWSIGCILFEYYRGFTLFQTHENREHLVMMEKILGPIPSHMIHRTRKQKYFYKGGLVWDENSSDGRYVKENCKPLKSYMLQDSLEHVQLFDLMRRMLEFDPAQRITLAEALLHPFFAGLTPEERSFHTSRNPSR

[13] = target: Dual specificity protein kinase CLK4 (Homo sapiens) (UniProt Q9HAZ1); conditions: Compound concentration 1000.0 nM
[14] = target: Casein kinase I isoform epsilon (Homo sapiens) (UniProt P49674); conditions: Compound concentration 1000.0 nM
Casein kinase I isoform epsilon (Homo sapiens), sequence (P49674 whole entry, looked up, canonical isoform): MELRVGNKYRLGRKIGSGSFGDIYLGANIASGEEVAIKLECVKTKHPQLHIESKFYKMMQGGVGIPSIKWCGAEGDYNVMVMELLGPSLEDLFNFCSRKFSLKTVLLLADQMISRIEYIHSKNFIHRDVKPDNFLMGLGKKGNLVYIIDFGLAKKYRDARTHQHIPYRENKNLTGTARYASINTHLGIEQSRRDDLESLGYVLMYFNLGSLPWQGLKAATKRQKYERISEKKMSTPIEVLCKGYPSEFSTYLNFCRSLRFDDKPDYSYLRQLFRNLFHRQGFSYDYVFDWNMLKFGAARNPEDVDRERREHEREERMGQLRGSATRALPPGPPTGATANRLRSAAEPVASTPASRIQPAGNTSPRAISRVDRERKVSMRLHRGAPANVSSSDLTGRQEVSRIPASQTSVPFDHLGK

[15] = target: Ephrin type-A receptor 2 (Homo sapiens) (UniProt P29317); conditions: Compound concentration 1000.0 nM
[16] = target: Rhodopsin kinase GRK1 (Homo sapiens) (UniProt Q15835); conditions: Compound concentration 1000.0 nM
[17] = target: Mitogen-activated protein kinase 9 (Homo sapiens) (UniProt P45984); conditions: Compound concentration 1000.0 nM
[18] = tested on: Mast/stem cell growth factor receptor Kit (Homo sapiens), P10721 [D816V]; conditions: Compound concentration 1000.0 nM
[19] = tested on: Mast/stem cell growth factor receptor Kit (Homo sapiens), P10721 [L576P]; conditions: Compound concentration 1000.0 nM
[20] = target: Mitogen-activated protein kinase kinase kinase 13 (Homo sapiens) (UniProt O43283); conditions: Compound concentration 1000.0 nM
[21] = target: Mitogen-activated protein kinase kinase kinase kinase 4 (Homo sapiens) (UniProt O95819); conditions: Compound concentration 1000.0 nM
[22] = target: MAP/microtubule affinity-regulating kinase 3 (Homo sapiens) (UniProt P27448); conditions: Compound concentration 1000.0 nM
[23] = target: Microtubule-associated serine/threonine-protein kinase 1 (Homo sapiens) (UniProt Q9Y2H9); conditions: Compound concentration 1000.0 nM
[24] = target: Dual specificity mitogen-activated protein kinase kinase 2 (Homo sapiens) (UniProt P36507); conditions: Compound concentration 1000.0 nM
[25] = target: Dual specificity mitogen-activated protein kinase kinase 3 (Homo sapiens) (UniProt P46734); conditions: Compound concentration 1000.0 nM
[26] = target: Dual specificity mitogen-activated protein kinase kinase 7 (Homo sapiens) (UniProt O14733); conditions: Compound concentration 1000.0 nM
[27] = target: Mitogen-activated protein kinase kinase kinase 9 (Homo sapiens) (UniProt P80192); conditions: Compound concentration 1000.0 nM
[28] = target: Serine/threonine-protein kinase 4 (Homo sapiens) (UniProt Q13043); conditions: Compound concentration 1000.0 nM
Serine/threonine-protein kinase 4 (Homo sapiens), sequence (Q13043 whole entry): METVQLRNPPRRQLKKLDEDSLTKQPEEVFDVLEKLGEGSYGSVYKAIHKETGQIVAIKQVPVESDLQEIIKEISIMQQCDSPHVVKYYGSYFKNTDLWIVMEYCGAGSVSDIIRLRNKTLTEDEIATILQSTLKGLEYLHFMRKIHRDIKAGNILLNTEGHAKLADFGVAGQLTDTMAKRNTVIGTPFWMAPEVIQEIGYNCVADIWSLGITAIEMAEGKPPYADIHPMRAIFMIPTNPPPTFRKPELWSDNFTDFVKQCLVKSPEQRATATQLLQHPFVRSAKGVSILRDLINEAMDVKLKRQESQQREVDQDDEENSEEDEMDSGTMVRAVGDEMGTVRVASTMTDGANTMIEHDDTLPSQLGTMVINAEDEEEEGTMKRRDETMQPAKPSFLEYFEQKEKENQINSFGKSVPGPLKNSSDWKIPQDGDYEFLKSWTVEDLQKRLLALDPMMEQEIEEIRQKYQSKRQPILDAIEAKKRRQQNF

[29] = target: Cyclin-dependent kinase 17 (Homo sapiens) (UniProt Q00537); conditions: Compound concentration 1000.0 nM
[30] = target: Phosphorylase b kinase gamma catalytic chain, skeletal muscle/heart isoform (Homo sapiens) (UniProt Q16816); conditions: Compound concentration 1000.0 nM
[31] = target: Phosphatidylinositol 3-kinase C2 domain-containing subunit gamma (Homo sapiens) (UniProt O75747); conditions: Compound concentration 1000.0 nM
Phosphatidylinositol 3-kinase C2 domain-containing subunit gamma (Homo sapiens), sequence (O75747 whole entry, the tested form may be a part, canonical isoform): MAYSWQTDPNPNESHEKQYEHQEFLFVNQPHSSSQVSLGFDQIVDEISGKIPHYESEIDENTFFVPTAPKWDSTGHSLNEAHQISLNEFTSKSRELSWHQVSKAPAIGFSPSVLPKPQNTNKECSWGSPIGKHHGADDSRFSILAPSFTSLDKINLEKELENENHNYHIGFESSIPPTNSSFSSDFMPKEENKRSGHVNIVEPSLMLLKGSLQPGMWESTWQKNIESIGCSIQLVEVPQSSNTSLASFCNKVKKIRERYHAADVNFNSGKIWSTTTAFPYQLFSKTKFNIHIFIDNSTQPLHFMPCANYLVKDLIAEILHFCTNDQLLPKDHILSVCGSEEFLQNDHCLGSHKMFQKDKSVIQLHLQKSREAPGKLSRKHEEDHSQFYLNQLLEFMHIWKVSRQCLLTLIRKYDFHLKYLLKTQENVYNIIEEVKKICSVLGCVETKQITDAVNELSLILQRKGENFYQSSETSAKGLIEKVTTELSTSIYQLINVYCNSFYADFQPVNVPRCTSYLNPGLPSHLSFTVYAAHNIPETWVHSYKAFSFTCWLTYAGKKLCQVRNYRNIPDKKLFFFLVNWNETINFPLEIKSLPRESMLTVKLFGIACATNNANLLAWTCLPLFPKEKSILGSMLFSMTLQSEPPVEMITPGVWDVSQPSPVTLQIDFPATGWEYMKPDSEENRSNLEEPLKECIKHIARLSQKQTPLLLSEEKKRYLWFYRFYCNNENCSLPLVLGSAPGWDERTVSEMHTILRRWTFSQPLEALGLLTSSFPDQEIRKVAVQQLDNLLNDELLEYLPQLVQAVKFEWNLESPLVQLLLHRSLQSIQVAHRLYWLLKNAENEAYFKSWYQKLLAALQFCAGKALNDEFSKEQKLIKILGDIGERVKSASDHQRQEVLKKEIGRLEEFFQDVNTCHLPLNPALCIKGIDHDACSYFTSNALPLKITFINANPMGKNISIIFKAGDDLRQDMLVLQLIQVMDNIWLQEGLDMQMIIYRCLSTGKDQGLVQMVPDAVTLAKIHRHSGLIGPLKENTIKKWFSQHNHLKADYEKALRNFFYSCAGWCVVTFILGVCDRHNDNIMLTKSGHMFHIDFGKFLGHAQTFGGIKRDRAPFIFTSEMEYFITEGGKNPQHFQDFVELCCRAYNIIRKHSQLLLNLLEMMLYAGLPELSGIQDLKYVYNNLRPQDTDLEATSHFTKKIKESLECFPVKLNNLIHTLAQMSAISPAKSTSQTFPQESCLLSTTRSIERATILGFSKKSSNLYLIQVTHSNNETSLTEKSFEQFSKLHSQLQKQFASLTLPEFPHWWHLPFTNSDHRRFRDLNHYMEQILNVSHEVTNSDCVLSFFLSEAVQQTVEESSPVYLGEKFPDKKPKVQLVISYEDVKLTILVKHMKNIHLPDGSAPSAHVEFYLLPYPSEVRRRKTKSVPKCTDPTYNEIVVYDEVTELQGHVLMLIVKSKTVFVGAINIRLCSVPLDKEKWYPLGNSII

[32] = tested on: Phosphatidylinositol 4,5-bisphosphate 3-kinase catalytic subunit alpha isoform (Homo sapiens), P42336 [M1043I]; conditions: Compound concentration 1000.0 nM
[33] = target: Phosphatidylinositol 5-phosphate 4-kinase type-2 beta (Homo sapiens) (UniProt P78356); conditions: Compound concentration 1000.0 nM
[34] = target: cAMP-dependent protein kinase catalytic subunit alpha (Homo sapiens) (UniProt P17612); conditions: Compound concentration 1000.0 nM
[35] = target: Protein kinase C delta type (Homo sapiens) (UniProt Q05655); conditions: Compound concentration 1000.0 nM
[36] = target: cAMP-dependent protein kinase catalytic subunit PRKX (Homo sapiens) (UniProt P51817); conditions: Compound concentration 1000.0 nM
cAMP-dependent protein kinase catalytic subunit PRKX (Homo sapiens), sequence (P51817 whole entry): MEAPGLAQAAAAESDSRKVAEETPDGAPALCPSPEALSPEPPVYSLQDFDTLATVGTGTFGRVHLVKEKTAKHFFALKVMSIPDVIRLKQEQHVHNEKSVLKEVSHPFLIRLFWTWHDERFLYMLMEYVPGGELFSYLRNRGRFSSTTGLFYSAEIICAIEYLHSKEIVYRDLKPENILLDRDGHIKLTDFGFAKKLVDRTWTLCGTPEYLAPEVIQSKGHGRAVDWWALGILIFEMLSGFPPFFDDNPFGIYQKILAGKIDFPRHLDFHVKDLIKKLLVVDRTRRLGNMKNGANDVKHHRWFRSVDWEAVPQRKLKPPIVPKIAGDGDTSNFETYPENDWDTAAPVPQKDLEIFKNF

[37] = tested on: Proto-oncogene tyrosine-protein kinase receptor Ret (Homo sapiens), P07949 [M918T]; conditions: Compound concentration 1000.0 nM
[38] = tested on: Proto-oncogene tyrosine-protein kinase receptor Ret (Homo sapiens), P07949 [V804L]; conditions: Compound concentration 1000.0 nM
[39] = target: Ribosomal protein S6 kinase alpha-1 (Homo sapiens) (UniProt Q15418); conditions: Compound concentration 1000.0 nM
[40] = target: Ribosomal protein S6 kinase alpha-2 (Homo sapiens) (UniProt Q15349); conditions: Compound concentration 1000.0 nM
[41] = target: Serine/threonine-protein kinase SIK2 (Homo sapiens) (UniProt Q9H0K1); conditions: Compound concentration 1000.0 nM
[42] = target: Serine/threonine-protein kinase 16 (Homo sapiens) (UniProt O75716); conditions: Compound concentration 1000.0 nM
Serine/threonine-protein kinase 16 (Homo sapiens), sequence (O75716 whole entry): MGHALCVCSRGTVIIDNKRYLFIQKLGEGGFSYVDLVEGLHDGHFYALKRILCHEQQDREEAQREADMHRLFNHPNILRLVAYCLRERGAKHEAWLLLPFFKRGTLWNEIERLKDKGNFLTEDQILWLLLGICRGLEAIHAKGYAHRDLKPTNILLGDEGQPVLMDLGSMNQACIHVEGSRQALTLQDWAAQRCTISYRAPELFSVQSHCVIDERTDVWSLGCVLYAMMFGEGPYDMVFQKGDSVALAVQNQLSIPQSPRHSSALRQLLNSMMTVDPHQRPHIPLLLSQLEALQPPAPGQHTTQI

[43] = target: Serine/threonine-protein kinase TAO3 (Homo sapiens) (UniProt Q9H2K8); conditions: Compound concentration 1000.0 nM
[44] = target: TGF-beta receptor type-2 (Homo sapiens) (UniProt P37173); conditions: Compound concentration 1000.0 nM
[45] = target: Histamine H4 receptor (Homo sapiens) (UniProt Q9H3N8); conditions: Compound concentration 10.0 uM

Tyrosine-protein kinase ABL2 (Homo sapiens), sequence (P42684 whole entry): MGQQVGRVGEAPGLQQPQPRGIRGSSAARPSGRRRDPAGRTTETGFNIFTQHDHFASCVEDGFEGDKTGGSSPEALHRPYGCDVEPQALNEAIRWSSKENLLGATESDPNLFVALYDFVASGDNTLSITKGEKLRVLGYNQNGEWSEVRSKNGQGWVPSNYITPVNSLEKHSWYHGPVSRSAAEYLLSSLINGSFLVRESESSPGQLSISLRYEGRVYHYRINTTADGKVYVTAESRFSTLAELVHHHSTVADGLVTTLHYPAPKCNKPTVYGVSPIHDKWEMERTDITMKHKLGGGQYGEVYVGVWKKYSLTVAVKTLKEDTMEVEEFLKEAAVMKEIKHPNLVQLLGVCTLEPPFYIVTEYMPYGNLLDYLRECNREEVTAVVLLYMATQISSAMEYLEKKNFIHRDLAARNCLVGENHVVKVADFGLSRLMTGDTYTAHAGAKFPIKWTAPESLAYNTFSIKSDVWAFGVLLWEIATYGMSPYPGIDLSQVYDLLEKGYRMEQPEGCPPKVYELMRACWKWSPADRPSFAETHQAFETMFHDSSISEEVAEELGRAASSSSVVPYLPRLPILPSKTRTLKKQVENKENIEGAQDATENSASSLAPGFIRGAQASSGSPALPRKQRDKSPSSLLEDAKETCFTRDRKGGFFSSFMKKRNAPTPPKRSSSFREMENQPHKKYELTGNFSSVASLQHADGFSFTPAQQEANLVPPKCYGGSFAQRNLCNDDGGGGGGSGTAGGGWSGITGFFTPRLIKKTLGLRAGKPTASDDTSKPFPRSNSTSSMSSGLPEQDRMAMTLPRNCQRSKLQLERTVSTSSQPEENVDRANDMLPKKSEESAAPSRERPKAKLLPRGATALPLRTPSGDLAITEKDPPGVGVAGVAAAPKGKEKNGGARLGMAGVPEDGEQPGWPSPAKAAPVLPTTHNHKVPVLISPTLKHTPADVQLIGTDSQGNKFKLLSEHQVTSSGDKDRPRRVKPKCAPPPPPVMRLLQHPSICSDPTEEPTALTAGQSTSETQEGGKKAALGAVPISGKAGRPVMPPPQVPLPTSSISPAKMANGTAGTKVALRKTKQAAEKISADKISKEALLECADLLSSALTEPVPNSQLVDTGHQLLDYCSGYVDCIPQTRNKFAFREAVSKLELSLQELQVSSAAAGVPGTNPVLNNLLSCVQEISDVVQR

COc1ccc2c(O[C@@H]3C[C@H]4C(=O)N[C@]5(C(=O)O)CC5/C=C\CCCCC[C@H](NC(=O)OC5CCCC5)C(=O)N4C3)cc(-c3csc(NC(=O)C(C)C)n3)nc2c1C (stereo not given in full) [BI 1230]
inactive: residual activity [1] 91% | residual activity [2] 90% | residual activity [3] 87% | residual activity [4] 98% | residual activity [5] 100% | residual activity [6] 100% | residual activity [7] 99% | residual activity [8] 100% | residual activity [9] 88% | residual activity [10] 89% | residual activity [11] 98% | residual activity [12] 100% | residual activity [13] 100% | residual activity [14] 100% | residual activity [15] 80% | residual activity [16] 100% | residual activity [17] 71% | residual activity [18] 95% | residual activity [19] 90% | residual activity [20] 86% | residual activity [21] 100% | residual activity [22] 95% | residual activity [23] 98% | residual activity [24] 77% | residual activity [25] 82% | residual activity [26] 81% | residual activity [27] 100% | residual activity [28] 100% | residual activity [29] 100% | residual activity [30] 96% | residual activity [31] 86% | residual activity [32] 88% | residual activity [33] 100% | residual activity [34] 97% | residual activity [35] 84% | residual activity [36] 86% | residual activity [37] 97% | residual activity [38] 95% | residual activity [39] 100% | residual activity [40] 100% | residual activity [41] 100% | residual activity [42] 100% | residual activity [43] 88% | residual activity [44] 93% | inhibition [45] 43.5%

O=C(N[C@H]1CCCCC/C=C\C2C[C@@]2(C(=O)O)NC(=O)[C@@H]2C[C@@H](Oc3ccncc3)CN2C1=O)OC1CCCC1 (stereo not given in full) [BI 1675]
inactive: residual activity [1] 71% | residual activity [2] 89% | residual activity [3] 84% | residual activity [4] 100% | residual activity [5] 95% | residual activity [6] 86% | residual activity [7] 100% | residual activity [8] 100% | residual activity [9] 89% | residual activity [10] 100% | residual activity [11] 100% | residual activity [12] 93% | residual activity [13] 93% | residual activity [14] 67% | residual activity [15] 71% | residual activity [16] 100% | residual activity [17] 94% | residual activity [18] 90% | residual activity [19] 91% | residual activity [20] 100% | residual activity [21] 100% | residual activity [22] 100% | residual activity [23] 82% | residual activity [24] 87% | residual activity [25] 80% | residual activity [26] 91% | residual activity [27] 97% | residual activity [28] 100% | residual activity [29] 89% | residual activity [30] 88% | residual activity [31] 71% | residual activity [32] 84% | residual activity [33] 100% | residual activity [34] 92% | residual activity [35] 100% | residual activity [36] 80% | residual activity [37] 96% | residual activity [38] 86% | residual activity [39] 82% | residual activity [40] 99% | residual activity [41] 100% | residual activity [42] 79% | residual activity [43] 100% | residual activity [44] 85% | inhibition [45] -8.87%
